This is an account of results in patent publication US7235531B2, “Tachykinin-like polypeptides and use thereof” (Takeda Pharmaceutical Company, priority 1999, dated 2007).

No end group written: not given here.

One test deals with anesthetized rats. The test is described as follows: Activity of ATT(35-45) on blood pressure in anesthetized rats. It is filed as in vivo, Male Wistar rats. Conditions: for decrease in blood pressure: left femoral vein (i.v.), n=4, mean±standard deviation. The protocol: The activity of ATT(35-45) on blood pressure in anesthetized rats was determined in the following manner. Male Wistar rats (weighing 300 to 400 g, by CLEA Japan Inc.) were anesthetized with thiobutabarbital sodium (100 mg/kg i.p.), a catheter (SP-55) for measuring blood pressure connected to a transducer was inserted into the left carotid artery, and a catheter (SP-35) for intravenous administration was inserted into the left femoral vein. The peptide was dissolved in physiological saline containing 0.05% BSA, and doses of 0.01, 0.1, and 1 nmol/kg were administered through the left femoral vein. The blood pressure was continuously recorded on a polygraph (NEC Sanei).

Test [1] concerns guinea pig ileum specimens. The test is described as follows: Contracting activity of ATT(35-45) on guinea pig ileum specimens. The test is classed as cell-based. To be noted: 10^−10 M to 3×10^−7 M. How it is done: The horizontal axis in the figure represents the dose (M) of ATT(35-45), and the vertical axis represents the rate of contraction relative to the contraction of the guinea pig ileum specimens induced by 10^-6 M acetylcholine.
The contracting activity of ATT(35-45) on guinea pig ileum specimens was determined in the following manner. 13 to 15-week old male guinea pigs (std: Hartley) were exsanguinated, and the ileum was excised. The ileum was cut to a length of 1.5 cm to prepare specimens. The specimens were aerated with a gas mixture (95% O^2-5% CO2) while suspended in Tyrode's solution (137.9 mM NaCl, 2.7 mM KCl, 1.8 mM CaCl2, 0.5 mM MgCl2, 1.1 mM NaH2PO4, 11.9 mM NaHCO3, and 5.6 mM glucose) maintained at 37° C., and the isotonic contractions under a 0.5 g load were recorded. The peptide was administered cumulatively in the organ bath.

“TGKASQFFGLM-NH2 [ATT(35-45), Thr-Gly-Lys-Ala-Ser-Gln-Phe-Phe-Gly-Leu-Met-NH2]”: the “decrease in blood pressure” value is listed as 12.3±0.8 mmHg in the test on anesthetized rats (0.01 nmol/kg), 21.5±1.8 mmHg with anesthetized rats (0.1 nmol/kg) and 33.8±6.6 mmHg with anesthetized rats (1 nmol/kg). Also, the “effect on blood pressure (in words)” value in the test with anesthetized rats (doses of 0.01, 0.1 and 1 nmol/kg i.v.) is recorded as “dose-dependent decreases in blood pressure”. The “contraction of guinea pig ileum specimens (in words)” value in test [1] is listed as “concentration-dependent contraction”. Besides, in test [1] (guinea pig ileum), the “maximum contraction relative to the contraction induced with 10^−6 M acetylcholine” value was “about 90%”.
